Assay results reported in ChEMBL document CHEMBL1156986, “Derivatives of schisandrin with increased inhibitory potential on prostaglandin E(2) and leukotriene B(4) formation in vitro” (Bioorg Med Chem, 2010).
Active and inactive are the calls of the source. The calls are words filed in the database; no cut-off is given here.

What was measured:
[1] = target: T1, Prostaglandin G/H synthase 1 (Ovis aries) (UniProt P05979); assay: Inhibition of ram seminal vesicle COX1 at 50 uM assessed as PGE2 concentration
T1 sequence (whole entry): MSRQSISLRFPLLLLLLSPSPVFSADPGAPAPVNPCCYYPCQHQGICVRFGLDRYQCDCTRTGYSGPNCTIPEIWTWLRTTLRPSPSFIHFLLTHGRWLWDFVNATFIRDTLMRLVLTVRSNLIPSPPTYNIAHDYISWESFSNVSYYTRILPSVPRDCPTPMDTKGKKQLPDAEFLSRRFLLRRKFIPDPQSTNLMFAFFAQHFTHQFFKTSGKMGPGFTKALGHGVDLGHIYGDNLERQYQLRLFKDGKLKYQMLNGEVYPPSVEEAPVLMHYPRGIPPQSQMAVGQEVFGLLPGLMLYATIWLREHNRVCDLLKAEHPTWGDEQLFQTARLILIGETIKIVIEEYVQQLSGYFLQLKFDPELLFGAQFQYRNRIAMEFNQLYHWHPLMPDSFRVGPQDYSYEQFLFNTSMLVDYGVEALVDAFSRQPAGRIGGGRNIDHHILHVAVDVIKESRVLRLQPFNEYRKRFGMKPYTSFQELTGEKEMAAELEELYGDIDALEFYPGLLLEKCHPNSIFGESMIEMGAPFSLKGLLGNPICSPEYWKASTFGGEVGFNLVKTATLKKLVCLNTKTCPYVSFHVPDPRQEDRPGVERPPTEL

[2] = target: T2, Prostaglandin G/H synthase 2 (Ovis aries) (UniProt P79208); assay: Inhibition of ram seminal vesicle COX2 at 50 uM assessed as PGE2 level by EIA; assay type: tissue-based
T2 sequence (whole entry): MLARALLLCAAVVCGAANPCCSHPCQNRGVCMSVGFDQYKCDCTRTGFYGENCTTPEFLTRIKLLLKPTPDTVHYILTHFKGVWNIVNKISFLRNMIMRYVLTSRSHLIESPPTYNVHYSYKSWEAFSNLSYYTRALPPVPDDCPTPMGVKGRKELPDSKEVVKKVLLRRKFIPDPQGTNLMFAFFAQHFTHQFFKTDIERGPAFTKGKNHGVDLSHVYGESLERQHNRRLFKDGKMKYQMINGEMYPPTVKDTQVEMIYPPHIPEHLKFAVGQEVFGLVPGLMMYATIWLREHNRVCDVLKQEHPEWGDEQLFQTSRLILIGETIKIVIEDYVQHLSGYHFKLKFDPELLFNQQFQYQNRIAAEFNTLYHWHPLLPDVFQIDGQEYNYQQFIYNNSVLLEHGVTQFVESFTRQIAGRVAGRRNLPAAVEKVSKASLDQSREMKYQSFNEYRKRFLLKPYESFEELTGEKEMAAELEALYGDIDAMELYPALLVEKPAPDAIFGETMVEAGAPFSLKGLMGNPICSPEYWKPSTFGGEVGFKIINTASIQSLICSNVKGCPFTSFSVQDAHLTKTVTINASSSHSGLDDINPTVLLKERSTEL

[3] = target: T3, Polyunsaturated fatty acid 5-lipoxygenase (Homo sapiens) (UniProt P09917); assay: Inhibition of 5-LOX-mediated LTB4 production from stimulated human neutrophile granulocytes at 50 uM after 10 mins by EIA
T3 sequence (whole entry): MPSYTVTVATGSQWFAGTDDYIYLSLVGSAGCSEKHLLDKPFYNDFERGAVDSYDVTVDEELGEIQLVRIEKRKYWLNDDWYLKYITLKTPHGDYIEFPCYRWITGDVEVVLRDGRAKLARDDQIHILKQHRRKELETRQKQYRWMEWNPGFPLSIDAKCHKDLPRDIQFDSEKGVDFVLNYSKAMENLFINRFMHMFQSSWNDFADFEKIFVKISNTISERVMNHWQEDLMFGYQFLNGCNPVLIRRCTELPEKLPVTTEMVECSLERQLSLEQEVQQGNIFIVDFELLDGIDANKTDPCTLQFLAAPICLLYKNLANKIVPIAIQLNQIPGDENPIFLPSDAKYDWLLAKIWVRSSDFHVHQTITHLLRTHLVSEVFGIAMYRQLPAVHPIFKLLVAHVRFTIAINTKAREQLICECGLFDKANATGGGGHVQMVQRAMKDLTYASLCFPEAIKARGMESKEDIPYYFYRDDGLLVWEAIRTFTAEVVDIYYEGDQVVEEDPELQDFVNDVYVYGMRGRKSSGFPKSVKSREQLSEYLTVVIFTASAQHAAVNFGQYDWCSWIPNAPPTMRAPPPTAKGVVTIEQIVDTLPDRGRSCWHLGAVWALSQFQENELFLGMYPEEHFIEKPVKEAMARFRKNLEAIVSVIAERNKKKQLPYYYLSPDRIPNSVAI

[4] = target: T4, Polyunsaturated fatty acid 5-lipoxygenase (Homo sapiens, UniProt P09917); assay: Inhibition of 5-LOX-mediated LTB4 production in stimulated human neutrophile granulocytes after 10 mins by EIA
T4 sequence (P09917 whole entry): T3 sequence (whole entry)

[5] = target: T5, Prostaglandin G/H synthase 2 (Ovis aries, UniProt P79208); assay: Inhibition of sheep placental cotyledens COX2 assessed as PGE2 level by EIA
T5 sequence (P79208 whole entry): T2 sequence (whole entry)

inhibition [1]	inhibition [2]	inhibition [3]	IC50 [4]	IC50 [5]	SMILES
inactive	inactive	inactive	–	–	C/C=C(\C)C(=O)Oc1c(OC)c(OC)cc2c1-c1c(cc(OC)c(OC)c1OC)C[C@](C)(O)[C@@H](C)C2
inactive	inactive	inactive	–	–	COc1cc2c(c(OC)c1OC)-c1c(cc3c(c1OC)OCO3)C[C@H](C)[C@](C)(O)C2
inactive	inactive	inactive	–	–	C/C=C(/C)C(=O)Oc1c(OC)c(OC)cc2c1-c1c(cc(OC)c(OC)c1OC)C[C@](C)(O)[C@@H](C)C2
inactive	inactive	inactive	–	–	COc1cc2c(c(OC)c1OC)-c1c(cc(OC)c(OC)c1OC)C[C@](C)(O)[C@@H](C)C2
inactive	–	–	4.5 µM	–	COc1cc2c(c(OC)c1OC)-c1c(cc(OC)c(OC)c1OC)CC(C)(C(C)I)C2 (stereo unspecified)

More lines, now with the values behind:

SMILES	inhibition [1]	inhibition [2]	inhibition [3]	IC50 [4]	IC50 [5]
COc1cc2c(c(O)c1O)-c1c(cc(OC)c(O)c1O)C[C@](C)(O)[C@@H](C)C2	inactive	inactive	–	–	–
COc1cc2c(c(O)c1O)-c1c(cc(OC)c(O)c1O)CC(C)(C(C)O)C2 (stereo unspecified)	inactive	–	–	4.2 µM	–
CC(O)C1(C)Cc2cc(O)c(O)c(O)c2-c2c(cc(O)c(O)c2O)C1 (stereo unspecified)	inactive	–	37.3%	–	32.1 µM
